In this assay the test system is MOLM-13 cells. In words: MOLM-13 Cell Proliferation Assay (indicator of DHODH inhibition). Format: cell-based. The note with it: Homo sapiens, 72 Hours of culture, CellTiter-Glo, no uridine. The essentials: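 Low-passage MOLM-13 cells (10^4/well) in RPMI 1640 + 10% FBS exposed to compound (0.5% DMSO final) for 72 h at 37 °C, 5% CO2. Viability read by CellTiter-Glo luminescence; growth reflects de novo pyrimidine synthesis dependent on DHODH.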
In general terms: In ATP-based viability assays light output follows the ATP content of the culture.

SMILES strings stand for the structures.

A word on the IC50: it is the concentration needed to halve the response being measured. The low end stands for higher potency, the high end for lower potency. `N#Cc1ccc(C2c3[nH]c4cc(F)c(Cl)cc4c3CCN2c2nc(C(F)(F)F)cc(C(F)(F)F)n2)cc1` (stereo not drawn) [Compound 188, 4-{2-[4,6-bis(trifluoromethyl)pyrimidin-2-yl]-6-chloro-7-fluoro-2,3,4,9-tetrahydro-1H-pyrido[3,4-b]indol-1-yl}benzonitrile] yielded an IC50 of 0.6 nM.

Turning to `Fc1ccc(C2c3[nH]c4cc(F)c(Cl)cc4c3CCN2c2nccc(Cl)n2)cc1` (stereo not drawn) [Compound 15, 6-chloro-2-(4-chloropyrimidin-2-yl)-7-fluoro-1-(4-fluorophenyl)-2,3,4,9-tetrahydro-1H-pyrido[3,4-b]indole], the IC50 is 32.6 nM.

`Cc1ccc(C2c3[nH]c4ccc(Cl)c(F)c4c3CCN2c2nccc(C(F)(F)F)n2)cc1` (stereo not drawn) [Compound 76, 6-chloro-5-fluoro-1-(4-methylphenyl)-2-[4-(trifluoromethyl)pyrimidin-2-yl]-2,3,4,9-tetrahydro-1H-pyrido[3,4-b]indole] showed a half-inhibitory concentration (IC50) of 2.5 nM.

Turning to `Cc1ccc([C@H]2c3[nH]c4ccc(Cl)cc4c3CCN2c2nc(N3CCOCC3)nc(C(F)(F)F)n2)c(F)c1F` [Compound 436, (1S)-6-chloro-1-(2,3-difluoro-4-methylphenyl)-2-[4-(morpholin-4-yl)-6-(trifluoromethyl)-1,3,5-triazin-2-yl]-2,3,4,9-tetrahydro-1H-pyrido[3,4-b]indole], the IC50 was 0.6 nM.

In the case of `Cc1ccc(C2c3[nH]c4ccc(Cl)c(F)c4c3CCN2c2ncc(F)c(C#N)n2)c(F)c1F` (stereo not drawn) [Compound 214, 2-[6-chloro-1-(2,3-difluoro-4-methylphenyl)-5-fluoro-1,3,4,9-tetrahydro-2H-pyrido[3,4-b]indol-2-yl]-5-fluoropyrimidine-4-carbonitrile], the 50% inhibitory concentration (IC50) is 0.5 nM.

The molecule `CCc1ccnc(N2CCc3c([nH]c4cc(F)c(Cl)cc34)C2c2ccc(F)cc2)n1` (stereo not drawn) [Compound 22, 6-chloro-2-(4-ethylpyrimidin-2-yl)-7-fluoro-1-(4-fluorophenyl)-2,3,4,9-tetrahydro-1H-pyrido[3,4-b]indole] showed an IC50 of 57.8 nM.

Molecule `Cc1nc(Cl)nc(N2CCc3c([nH]c4ccc(Cl)cc34)C2c2cnc(N3CCOCC3)nc2)n1` (stereo not drawn) [Compound 289, 6-chloro-2-(4-chloro-6-methyl-1,3,5-triazin-2-yl)-1-[2-(morpholin-4-yl)pyrimidin-5-yl]-2,3,4,9-tetrahydro-1H-pyrido[3,4-b]indole] showed an IC50 of 27.1 nM.

Regarding `Cc1nc(C)nc(N2CCc3c([nH]c4ccc(Cl)cc34)C2c2ccc(Cl)cc2)n1` (stereo not drawn) [Compound 449, 6-chloro-1-(4-chlorophenyl)-2-(4,6-dimethyl-1,3,5-triazin-2-yl)-2,3,4,9-tetrahydro-1H-pyrido[3,4-b]indole], the IC50 was 15.2 nM.

Regarding `Cc1nc(N2CCc3c([nH]c4ccc(Cl)c(F)c34)C2c2cccc(F)c2F)ncc1F` (stereo not drawn) [Compound 113, 6-chloro-1-(2,3-difluorophenyl)-5-fluoro-2-(5-fluoro-4-methylpyrimidin-2-yl)-2,3,4,9-tetrahydro-1H-pyrido[3,4-b]indole], the IC50 was 2.6 nM.

Regarding `FC(F)(F)c1ccnc(N2CCc3c([nH]c4ccc(Cl)cc34)C2c2cnc(N3C4CCC3COC4)nc2)n1` (stereo not drawn) [Compound 337, 6-chloro-1-[2-(3-oxa-8-azabicyclo[3.2.1]octan-8-yl)pyrimidin-5-yl]-2-[4-(trifluoromethyl)pyrimidin-2-yl]-2,3,4,9-tetrahydro-1H-pyrido[3,4-b]indole], the midpoint of inhibition, the IC50, lay at 8.2 nM.

For the molecule `Cc1nc(N2CCc3c([nH]c4cc(F)c(Cl)cc34)C2c2ccc(CCCCO)cc2)ncc1F` (stereo not drawn) [Compound 240, 4-{4-[6-chloro-7-fluoro-2-(5-fluoro-4-methylpyrimidin-2-yl)-2,3,4,9-tetrahydro-1H-pyrido[3,4-b]indol-1-yl]phenyl}butan-1-ol], half-maximal inhibition (IC50) was put at 4.1 nM.

`CS(=O)(=O)c1ccc(C2c3[nH]c4cc(F)c(Cl)cc4c3CCN2c2ncc(F)cn2)cc1` (stereo not drawn) [Compound 107, 6-chloro-7-fluoro-2-(5-fluoropyrimidin-2-yl)-1-[4-(methanesulfonyl)phenyl]-2,3,4,9-tetrahydro-1H-pyrido[3,4-b]indole] yielded a half-inhibitory concentration (IC50) of 44.6 nM.

Molecule `CC(C)c1ccc(C2c3[nH]c4cc(F)c(Cl)cc4c3CCN2c2nccc(C#N)n2)cc1` (stereo not drawn) [Compound 55, 2-{6-chloro-7-fluoro-1-[4-(propan-2-yl)phenyl]-1,3,4,9-tetrahydro-2H-pyrido[3,4-b]indol-2-yl}pyrimidine-4-carbonitrile] came in with a half-maximal inhibitory concentration (IC50) of 13.1 nM.

As to `Cc1ccc([C@H]2c3[nH]c4ccc(Cl)cc4c3CCN2c2nc(CF)nc(C(F)(F)F)n2)c(F)c1F` [Compound 526, (1S)-6-chloro-1-(2,3-difluoro-4-methylphenyl)-2-[4-(fluoromethyl)-6-(trifluoromethyl)-1,3,5-triazin-2-yl]-2,3,4,9-tetrahydro-1H-pyrido[3,4-b]indole], the IC50 was determined as 0.5 nM.

Turning to `COC(=O)c1ccnc(N2CCc3c([nH]c4ccc(Cl)c(F)c34)C2c2ccc(C#N)cc2)n1` (stereo not drawn) [Compound 104, methyl 2-[6-chloro-1-(4-cyanophenyl)-5-fluoro-1,3,4,9-tetrahydro-2H-pyrido[3,4-b]indol-2-yl]pyrimidine-4-carboxylate], the IC50 stood at 30.4 nM.

Take `Cc1nc(C#N)nc(N2CCc3c([nH]c4ccc(Cl)cc34)[C@@H]2c2cnc(N3CCOCC3)nc2)n1` [Compound 415, 4-{(1S)-6-chloro-1-[2-(morpholin-4-yl)pyrimidin-5-yl]-1,3,4,9-tetrahydro-2H-pyrido[3,4-b]indol-2-yl}-6-methyl-1,3,5-triazine-2-carbonitrile]: half-maximal inhibition (IC50) was put at 50.6 nM.

`Fc1cc(Br)ccc1C1c2[nH]c3ccc(Cl)cc3c2CCN1c1nccc(C(F)(F)F)n1` (stereo not drawn) [Compound 268, 1-(4-bromo-2-fluorophenyl)-6-chloro-2-[4-(trifluoromethyl)pyrimidin-2-yl]-2,3,4,9-tetrahydro-1H-pyrido[3,4-b]indole] yielded an IC50 of 0.2 nM.

On to `Cc1ccc([C@H]2c3[nH]c4ccc(-n5nccn5)cc4c3CCN2c2nc(C(F)(F)F)cc(C(F)(F)F)n2)c(F)c1F` [Compound 519, (1S)-2-[4,6-bis(trifluoromethyl)pyrimidin-2-yl]-1-(2,3-difluoro-4-methylphenyl)-6-(2H-1,2,3-triazol-2-yl)-2,3,4,9-tetrahydro-1H-pyrido[3,4-b]indole], for which the half-maximal inhibitory concentration (IC50) came to 0.3 nM.

In turn, `CN(C)c1ccc(C2c3[nH]c4cc(F)c(Cl)cc4c3CCN2c2nccc(C(F)(F)F)n2)cn1` (stereo not drawn) [Compound 122, 5-{6-chloro-7-fluoro-2-[4-(trifluoromethyl)pyrimidin-2-yl]-2,3,4,9-tetrahydro-1H-pyrido[3,4-b]indol-1-yl}-N,N-dimethylpyridin-2-amine] gave a 50% inhibitory concentration (IC50) of 8.2 nM.

`Cc1cnn(-c2ccc3[nH]c4c(c3c2)CCN(c2nc(C(F)(F)F)nc(C(F)(F)F)n2)[C@H]4c2ccc(C)c(F)c2F)n1` [Compound 525, (1S)-2-[4,6-bis(trifluoromethyl)-1,3,5-triazin-2-yl]-1-(2,3-difluoro-4-methylphenyl)-6-(4-methyl-2H-1,2,3-triazol-2-yl)-2,3,4,9-tetrahydro-1H-pyrido[3,4-b]indole] came in with an IC50 of 1.3 nM.

As to `FC(F)(F)c1ccnc(N2CCc3c([nH]c4ccc(Cl)cc34)C2c2ccc(-n3cccn3)cc2)n1` (stereo not drawn) [Compound 261, 6-chloro-1-[4-(1H-pyrazol-1-yl)phenyl]-2-[4-(trifluoromethyl)pyrimidin-2-yl]-2,3,4,9-tetrahydro-1H-pyrido[3,4-b]indole], the IC50 came out at 1.2 nM.

For the origin of these results see patent publication US20250186437A1, “CARBOLINE COMPOUNDS AND USE THEREOF” (PTC Therapeutics, Inc., priority 2021, published 2025).
